Data: article PMC4468608, “A distinct p53 target gene set predicts for response to the selective p53–HDM2 inhibitor NVP-CGM097” (eLife, 2015)
pIC50: −log10 of the molar value. Like-named read-outs stand apart in the source and are kept apart here.

Tested on: cell lines from the Cancer Cell Line Encyclopedia (CCLE)
Assay: High-throughput cell viability assay, CCLE cell line panel (n = 356)
Type: cell-based, human
Settings: Homo sapiens
Protocol: Cell lines were partitioned into sensitive and insensitive groups based on compound potency (IC50). […] All other cell lines were obtained from ATCC (American Type Culture Collection), DSMZ (Deutsche Sammlung von Mikroorganismen und Zellkulturen), and HSRRB (Health Science Research Resources Bank) and cultured in RPMI or Dulbecco's modified Eagle's medium plus 10% FBS (Invitrogen, Carlsbad, CA) at 37°C, 5% CO2.

COc1cc2c(cc1OC(C)C)[C@H](c1ccc(Cl)cc1)N(c1ccc(N(C)C[C@H]3CC[C@H](N4CCNC(=O)C4)CC3)cc1)C(=O)C2 [NVP-CFC218]
IC50 (A 172, read-out: NVP- CFC218 IC50 (µM), cell line A172, central_nervous_system, TP53 WT): > 8 µM
pIC50 (A204, A-204, TP53 WT): 5.66
pIC50 (A2780, A2780, TP53 WT): 5.65
pIC50 (A-375, A-375, TP53 WT): 5.58
pIC50 (ACHN, TP53 WT): 5.69
pIC50 (AMO1, AMO-1, TP53 WT): 5.70
pIC50 (AN3-CA, AN3 CA, TP53 MUT): < 5.10
pIC50 (ASPC1, AsPC-1, TP53 MUT): < 5.10
pIC50 (AU565, AU565, TP53 MUT): < 5.10
pIC50 (BCPAP, B-CPAP, TP53 MUT): < 5.10
pIC50 (BDCM, TP53 WT): 6.15
pIC50 (BEN, TP53 MUT): < 5.10
pIC50 (BFTC-905, BFTC-905, TP53 MUT): < 5.10
pIC50 (BFTC-909, BFTC-909, TP53 MUT): < 5.10
pIC50 (BHY, TP53 MUT): < 5.10
pIC50 (BICR 6, TP53 MUT): < 5.10
pIC50 (BL-41, BL-41, TP53 MUT): < 5.10
pIC50 (BL-70, TP53 MUT): < 5.10
pIC50 (BT-20, BT-20, TP53 MUT): < 5.10
pIC50 (BT-474, BT-474, TP53 MUT): < 5.10
pIC50 (BT-549, BT-549, TP53 MUT): < 5.10
pIC50 (BXPC-3, BxPC-3, TP53 MUT): < 5.10
pIC50 (CAKI-2, Caki-2, TP53 WT): 5.44
pIC50 (CAL-12T, TP53 MUT): < 5.10
pIC50 (CAL-78, TP53 MUT): < 5.10
IC50 (CAL-85-1, read-out: NVP- CFC218 IC50 (µM), cell line CAL-85-1, breast, TP53 MUT): > 8 µM
IC50 (CAMA-1, read-out: NVP- CFC218 IC50 (µM), cell line CAMA-1, breast, TP53 MUT): > 8 µM
pIC50 (CAPAN-1, Capan-1, TP53 MUT): < 5.10
pIC50 (CAS-1, TP53 MUT): < 5.10
pIC50 (CFPAC-1, CFPAC-1, TP53 MUT): < 5.10
pIC50 (CHL-1, CHL-1, TP53 MUT): < 5.10
pIC50 (CHP-212, CHP-212, TP53 WT): 5.87
pIC50 (CMK-11-5, CMK-11-5, TP53 MUT): < 5.10
pIC50 (COLO 205, COLO 205, TP53 MUT): < 5.10
pIC50 (COLO 792, TP53 WT): < 5.10
pIC50 (COLO-679, COLO-679, TP53 WT): 6.04
pIC50 (COLO-741, COLO 741, TP53 MUT): < 5.10
pIC50 (COR-L23, COR-L23, TP53 WT): < 5.10
pIC50 (COV318, COV318, TP53 MUT): < 5.10
pIC50 (COV362, COV362, TP53 MUT): < 5.10
pIC50 (COV434, COV434, TP53 WT): 5.23
IC50 (COV504, read-out: NVP- CFC218 IC50 (µM), cell line COV504, ovary, TP53 MUT): > 8 µM
pIC50 (COV644, TP53 WT): < 5.10
pIC50 (Calu-3, Calu-3, TP53 MUT): < 5.10
pIC50 (Calu-6, Calu-6, TP53 MUT): < 5.10
pIC50 (Caov-3, Caov-3, TP53 MUT): < 5.10
IC50 (Capan-2, read-out: NVP- CFC218 IC50 (µM), cell line Capan-2, pancreas, TP53 WT): > 8 µM
pIC50 (ChaGo-K-1, ChaGo-K-1, TP53 MUT): < 5.10
pIC50 (DB, TP53 MUT): < 5.10
pIC50 (DBTRG-05MG, TP53 WT): 5.40
pIC50 (DEL, TP53 MUT): < 5.10
pIC50 (DK-MG, TP53 WT): 5.63
pIC50 (DMS-53, DMS 53, TP53 MUT): < 5.10
pIC50 (DMS-114, DMS 114, TP53 MUT): < 5.10
pIC50 (DOHH-2, DOHH-2, TP53 WT): 5.93
pIC50 (DU-145, DU 145, TP53 MUT): < 5.10
pIC50 (Daoy, TP53 MUT): < 5.10
pIC50 (Detroit 562, Detroit 562, TP53 MUT): < 5.10
pIC50 (EB2, TP53 MUT): < 5.10
pIC50 (EBC-1, EBC-1, TP53 MUT): < 5.10
pIC50 (EFE-184, EFE-184, TP53 MUT): < 5.10
pIC50 (EFM-19, EFM-19, TP53 MUT): < 5.10
pIC50 (EFO-21, EFO-21, TP53 MUT): < 5.10
pIC50 (EM-2, TP53 MUT): < 5.10
IC50 (ESS-1, read-out: NVP- CFC218 IC50 (µM), cell line ESS-1, endometrium, TP53 MUT): > 8 µM
pIC50 (FU-OV-1, TP53 MUT): < 5.10
pIC50 (FaDu, TP53 MUT): < 5.10
pIC50 (Fu97, FU97, TP53 MUT): < 5.10
pIC50 (G-361, G-361, TP53 WT): 5.50
pIC50 (G-401, G-401, TP53 WT): 5.80
pIC50 (G-402, G-402, TP53 WT): 5.64
pIC50 (GCIY, TP53 MUT): < 5.10
pIC50 (GI-1, TP53 MUT): < 5.10
pIC50 (GMS-10, GMS-10, TP53 MUT): < 5.10
pIC50 (GP2d, TP53 WT): 5.46
pIC50 (Granta-519, GRANTA-519, TP53 WT): 5.47
pIC50 (H4, TP53 WT): 5.55
pIC50 (HARA, TP53 MUT): < 5.10
pIC50 (HCC15, HCC-15, TP53 MUT): < 5.10
pIC50 (HCC70, HCC70, TP53 MUT): < 5.10
pIC50 (HCC78, HCC-78, TP53 MUT): < 5.10
pIC50 (HCC1500, HCC1500, TP53 WT): 5.31
pIC50 (HCC1806, HCC1806, TP53 MUT): < 5.10
pIC50 (HCC1954, HCC1954, TP53 MUT): < 5.10
pIC50 (HCC4006, HCC4006, TP53 MUT): < 5.10
